From US5096896A, “Sustained release compositions” (National Research Development Corporation, priority 1981, dated 1992)
Entries after “also recorded” stand apart in the source; their conditions may differ.

Experiments:
[1] = tested on: Plasmodium berghei (N strain); test: Experiment 2: P. berghei challenge of mice after sc injection of oil/pyrimethamine mixtures; type: in vivo, Plasmodium berghei in mice (Tuck TFW)
Description: This experiment was designed to extend the observation presented above in Experiment 1. All basic experimental procedures, including the preparation of 30% w/w dispersions of pyrimethamine base in S1, S2 and S3, were performed as described above. The primary objective was to obtain confirmation of the results obtained above whilst extending the period of observation. […] Twenty-seven groups of mice, with 5 mice in each, were again selected at random from pooled male white mice (Tuck TFW) of 20 gm body weight. Individual groups received 50 mg injections sc of S1 + pyrimethamine, S2 + pyrimethamine, S3 + pyrimethamine or S2 above. The distribution of groups is shown below:
At intervals of 14 days one group of mice from each of the different classes of inocula were infected by the intravenous injection of 1×10^6 mouse erythrocytes parasitised with P. berghei (N strain).
The examination of mice for P. berghei infection was performed as described above in Experiment 1.

P. berghei = test: Experiment 5: duration of protection by tetracycline in derivative oils; type: in vivo, Plasmodium berghei in mice; conditions: 30% tetracycline hydrochloride in oil, 100 mg sc
Description: This experiment (which is incomplete) was designed to ascertain the suitability of the derivatives of this invention in the administration of antibiotics. All basis experimental procedures were as described above except that the mice received 100 mg of the 30% mixtures of active substance (tetracycline as free base, or tetracycline as hydrochloride).

[2] = tested on: Plasmodium berghei (N strain); test: Experiment 1: P. berghei challenge of mice after sc injection of derivative oil with or without pyrimethamine; type: in vivo, Plasmodium berghei in mice (Tuck TFW male white)
Description: In the following experiments several derivative oils of this invention, prepared as aforesaid, were evaluated and compared for suitability as matrixes for active substances in the preparation of injectable depot antimalarial systems.
Depot preparations were made up by adding, by hand mixing, powdered active substance to the respective oil at 30% w/w.
Twenty-eight groups of mice, 5 mice per group, were selected at random from pooled Tuck TFW male white mice of approximately body weight 20 g. The mice were provided with food and water ad libitum. Care was taken that the diet contained adequate levels of p-aminobenzoic acid and that the mouse stock was free from infection with Eperythrozoon coccoides.
On day 0 the groups of mice were processed as follows:
(§1) Subcutaneous injections were administered in the mid dorsal, suprascapular position. Cages were examined daily and all deaths recorded. Mice were examined for evidence of local irritation at the site of injection.
On day 7, groups (cages) 1 to 7 inclusive were infected with Plasmodium berghei (N strain). 0.2 ml of an inoculum containing 1×10^6 infected mouse erythrocytes was injected into the tail vein of each recipient mouse. The presence or absence of patent malarial infection was determined by blood film examination three days post infection and at intervals thereafter. Standard procedures were employed in the examination of Giemsa stained blood films and in the determination of parasitaemia levels. The method of infection and the techniques for assessment of parasitaemia were as described previously. Some groups in which no parasitaemia developed after the initial inoculation with P. berghei were subsequently reinfected on the days illustrated in Table 5.

mice (site of injection) = test: Tissue reaction and residual oil at the site of injection; type: in vivo
Description: as §1
(§2) An extensive toxicological investigation of the oils, either alone or in combination with antimalarials, has not been undertaken. The observations reported here are based on the behaviour and condition of mice immediately following injection of test substances, and on the development of any obvious gross pathology subsequent to drugging. All animals in experimental groups were examined at intervals for evidence of ulceration or other tissue reactions at the site of injection and mice were killed at intervals and examined for residual oil deposits and evidence of adverse tissue reactions to such deposits.

[3] = tested on: P. berghei drug sensitive N strain; test: Experiment 4: protection against drug sensitive N strain P. berghei; type: in vivo, Plasmodium berghei in mice
Description: (§3) This experiment was designed to ascertain whether the sustained release composition of this invention could be utilised for the release of a mixture of active substances from a single depot. Preparations of 30% sulphadiazine + 10% pyrimethamine base in S2 (a new batch prepared as in Example 6) were blended and injected sc in 50 mg aliquots into mice in the suprascapular position. Additional groups of mice received S2 alone or no drug. Three groups of mice with S2 + drugs and 1 group with S2 alone were prepared for challenge on each of days 28, 42, 56 and 70. At each time interval one group each of the S2 + drug mice were challenged by the inoculation iv of 1×10^6 mouse erythrocytes infected with the drug sensitive N strain of P. berghei, the pyrimethamine resistant PYR strain and the sulphonamide resistant ORA strain, respectively. The group of mice with S2 alone was challenged with N strain parasites. Additional groups of control mice without oil were dosed with pyrimethamine (60 mg/kg) and orisulf (1000 mg/kg) immediately post-infection.

[4] = tested on: P. berghei sulphonamide resistant ORA strain; test: Experiment 4: protection against sulphonamide resistant ORA strain P. berghei; type: in vivo, Plasmodium berghei in mice; conditions: 1 x 1000 mg/kg, 0 (day 42 of exp)
Description: as §3

mice = test: Toxicity of the derivative oils, alone or with drug, in mice; type: in vivo
Excerpt: as §2

[5] = tested on: P. berghei pyrimethamine resistant PYR strain; test: Experiment 4: protection against pyrimethamine resistant PYR strain P. berghei; type: in vivo, Plasmodium berghei in mice; conditions: 1 x 60 mg/kg, 0 (day 42 of exp)
Description: as §3

CCOC1CCCC(COC(=O)C2CCCC(OCC)O2)O1 (centres unmarked) [Example S2]
Duration of antimalarial protection ([1]; 50 mg sc, 30% w/w pyrimethamine base): not less than 12 weeks
Parasitaemia on days post infection ([1]; challenge day 14, day 3/4, a: only one mouse surviving): 41%
Parasitaemia on days post infection ([1]; challenge day 14, day 7/8, a: only one mouse surviving): 80%
Parasitaemia on days post infection ([1]; challenge day 28, day 3/4): 26%
Parasitaemia on days post infection ([1]; challenge day 28, day 7/8): 50%
Parasitaemia on days post infection ([1]; challenge day 42, day 3/4): 3.7%
Parasitaemia on days post infection ([1]; challenge day 42, day 7/8): 32%
Parasitaemia on days post infection ([1]; challenge day 56, day 3/4): 26%
Parasitaemia on days post infection ([1]; challenge day 56, day 7/8): 70%
Parasitaemia on days post infection ([1]; challenge day 56, day 10): 78%
Parasitaemia on days post infection ([1]; challenge day 70, day 3/4): 23%
Parasitaemia on days post infection ([1]; challenge day 70, day 7/8): 74%
Parasitaemia on days post infection ([1]; challenge day 70, day 10, a: only one mouse surviving): 80%
Parasitaemia on days post infection ([1]; challenge day 84, day 3/4): 29.6%
Parasitaemia on days post infection ([1]; challenge day 84, day 7/8, c: one mouse of 5 patent): 70%
Parasitaemia on days post infection ([1]; challenge day 84, day 10): 80%
Duration of protection (days), tetracycline HCl (P. berghei): < 7 days
Parasitaemia (%) on days post infection ([2]; infected 7 days after drugging, day 3, 50 mg sc): 11.2%
Parasitaemia (%) on days post infection ([2]; infected 7 days after drugging, day 10, * estimated, 1 only survivor): ~80%
Parasitaemia (%) on days post infection ([2]; infected 21 days after drugging, day 3, 50 mg sc): 24%
Parasitaemia (%) on days post infection ([2]; infected 21 days after drugging, day 10, * estimated, 1 only survivor): ~80%
Parasitaemia (%) on days post infection ([2]; infected 32 days after drugging, day 3): 11.6%
Parasitaemia (%) on days post infection ([2]; infected 32 days after drugging, day 7): 56%
Malaria parasites in blood on day 3 post-infection ([2]; infected day 45, groups 24 and 25): no malaria parasite was observed
Parasitaemia (%) on days post infection ([2]; infected days 45, 48 after drugging, day 3 (first value)): 0%
Parasitaemia (%) on days post infection ([2]; infected days 45, 48 after drugging, day 3 (second value, after the slash)): 8.8%
Parasitaemia (%) on days post infection ([2]; infected days 45, 48 after drugging, day 7): 16.4%
Parasitaemia (%) on days post infection ([2]; infected days 45, 48 after drugging, day 10): 80%
Minimum period of protection of mice with pyrimethamine ([2]; oil with pyrimethamine, 50 mg sc): ≥ 9 weeks
Residual injected oil at injection site (mice (site of injection); 54 days after injection): Residues of the injected material were found in each of the 5 mice; also recorded: Somewhat greater quantities, albeit small amounts
Persistence of oil in vivo (mice (site of injection); in words): stable for a surprisingly long time in vivo
Tissue reaction to oil at injection site (mice (site of injection); oil alone, autopsy at 54 days): No evidence of adverse tissue reaction; also recorded: no marked fibrosis or vascularisation of the oil depot site
Mice with patent parasitaemia post-challenge ([3]; challenge day 28, day 3): 5/5
Mice with patent parasitaemia post-challenge ([3]; challenge day 28, day 7): 5/5
Mice with patent parasitaemia post-challenge ([3]; challenge day 42, day 3): 5/5
Mice with patent parasitaemia post-challenge ([3]; challenge day 42, day 7): 2/2
Mice with patent parasitaemia post-challenge ([3]; challenge day 56, day 3): 5/5
Mice with patent parasitaemia post-challenge ([3]; challenge day 56, day 7): 5/5

Nc1ccc(S(=O)(=O)Nc2ccnn2-c2ccccc2)cc1 [orisulf]
Mice with patent parasitaemia post-challenge ([4]; day 3): 5/5
Mice with patent parasitaemia post-challenge ([4]; day 7): 5/5
Mice with patent parasitaemia post-challenge ([4]; day 10): 5/5

CCc1nc(N)nc(N)c1-c1ccc(Cl)cc1 [pyr, pyrimethamine]
Mice dead at 24 hours (mice; mouse, in vivo): One of 5 mice
Mice with patent parasitaemia post-challenge ([5]; day 3): 5/5
Mice with patent parasitaemia post-challenge ([5]; day 7): 4/4
Mice with patent parasitaemia post-challenge ([5]; day 10): 4/4

CCc1nc(N)nc(N)c1-c1ccc(Cl)cc1 [pyrimethamine isethionate]
Mortality after dosing (mice; mouse, in vivo): all mice died within 1 hour of dosing
Distress after dosing (mice; sc, equivalent to 750 mg/kg and 1500 mg/kg base): induced distress in animals within minutes
